Laboratory results as given in PubChem BioAssay (NCI).
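Interpolation was linear, between the two tested concentrations surrounding the appropriate level; five concentrations were tested over 48 hours in 96-well plates. Here, GI50 denotes the concentration required for 50% inhibition of growth. TGI marks complete inhibition of growth.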

Columns and labels:
Assay in all cases: NCI anticancer screen, dose series, 48 h
ACHN renal = tested on: ACHN renal
MOLT-4 leukemia = tested on: MOLT-4 leukemia
SW-620 colon = tested on: SW-620 colon
OVCAR-8 ovarian = tested on: OVCAR-8 ovarian
RXF 393 renal = tested on: RXF 393 renal
SNB-75 CNS = tested on: SNB-75 CNS
UO-31 renal = tested on: UO-31 renal
HOP-92 NSCLC = tested on: HOP-92 NSCLC
DMS 273 small cell lung = tested on: DMS 273 small cell lung
DLD-1 colon = tested on: DLD-1 colon
TK-10 renal = tested on: TK-10 renal
SNB-78 CNS = tested on: SNB-78 CNS
NCI-H460 lung = tested on: NCI-H460 lung
SF-268 CNS = tested on: SF-268 CNS
DMS 114 small cell lung = tested on: DMS 114 small cell lung
SN12C renal = tested on: SN12C renal
NCI-H23 lung = tested on: NCI-H23 lung
HCT-15 colon = tested on: HCT-15 colon
IGROV1 ovarian = tested on: IGROV1 ovarian
XF 498 CNS = tested on: XF 498 CNS
SK-MEL-2 melanoma = tested on: SK-MEL-2 melanoma
EKVX NSCLC = tested on: EKVX NSCLC
HCC-2998 colon = tested on: HCC-2998 colon
M19-MEL melanoma = tested on: M19-MEL melanoma
KM20L2 colon = tested on: KM20L2 colon
CCRF-CEM leukemia = tested on: CCRF-CEM leukemia
SK-OV-3 ovarian = tested on: SK-OV-3 ovarian
M14 melanoma = tested on: M14 melanoma
786-0 renal = tested on: 786-0 renal
OVCAR-3 ovarian = tested on: OVCAR-3 ovarian
KM12 colon = tested on: KM12 colon
OVCAR-5 ovarian = tested on: OVCAR-5 ovarian
UACC-62 melanoma = tested on: UACC-62 melanoma
SF-295 CNS = tested on: SF-295 CNS
UACC-257 melanoma = tested on: UACC-257 melanoma
COLO 205 colon = tested on: COLO 205 colon
SF-539 CNS = tested on: SF-539 CNS
SR leukemia = tested on: SR leukemia
NCI-H226 lung = tested on: NCI-H226 lung
HOP-18 NSCLC = tested on: HOP-18 NSCLC
K-562 leukemia = tested on: K-562 leukemia
HT29 colon = tested on: HT29 colon
NCI-H522 lung = tested on: NCI-H522 lung
RPMI-8226 leukemia = tested on: RPMI-8226 leukemia
HCT-116 colon = tested on: HCT-116 colon
OVCAR-4 ovarian = tested on: OVCAR-4 ovarian
SK-MEL-5 melanoma = tested on: SK-MEL-5 melanoma
HL-60(TB) leukemia = tested on: HL-60(TB) leukemia
LXFL 529 NSCLC = tested on: LXFL 529 NSCLC
A549 NSCLC = tested on: A549 NSCLC
MALME-3M melanoma = tested on: MALME-3M melanoma
SK-MEL-28 melanoma = tested on: SK-MEL-28 melanoma

Structure (SMILES): COc1ccc(/C(=N\NC(=S)NN)C(c2ccc(OC)cc2)C2C(=O)Oc3ccccc32)cc1 (configuration not stated)
- GI50 (ACHN renal): > 100 µM
- TGI (ACHN renal): > 100 µM
- GI50 (MOLT-4 leukemia): > 100 µM
- TGI (MOLT-4 leukemia): > 100 µM
- GI50 (SW-620 colon): > 100 µM
- TGI (SW-620 colon): > 100 µM
- GI50 (OVCAR-8 ovarian): > 100 µM
- TGI (OVCAR-8 ovarian): > 100 µM
- GI50 (RXF 393 renal): > 100 µM
- TGI (RXF 393 renal): > 100 µM
- GI50 (SNB-75 CNS): > 100 µM
- TGI (SNB-75 CNS): > 100 µM
- GI50 (UO-31 renal): > 100 µM
- TGI (UO-31 renal): > 100 µM
- GI50 (HOP-92 NSCLC): > 100 µM
- TGI (HOP-92 NSCLC): > 100 µM
- GI50 (DMS 273 small cell lung): > 100 µM
- TGI (DMS 273 small cell lung): > 100 µM
- GI50 (DLD-1 colon): > 100 µM
- TGI (DLD-1 colon): > 100 µM
- GI50 (TK-10 renal): > 100 µM
- TGI (TK-10 renal): > 100 µM
- GI50 (SNB-78 CNS): > 100 µM
- TGI (SNB-78 CNS): > 100 µM
- GI50 (NCI-H460 lung): > 100 µM
- TGI (NCI-H460 lung): > 100 µM
- GI50 (SF-268 CNS): > 100 µM
- TGI (SF-268 CNS): > 100 µM
- TGI (DMS 114 small cell lung): > 100 µM
- GI50 (SN12C renal): > 100 µM
- TGI (SN12C renal): > 100 µM
- GI50 (NCI-H23 lung): > 100 µM
- TGI (NCI-H23 lung): > 100 µM
- GI50 (HCT-15 colon): > 100 µM
- TGI (HCT-15 colon): > 100 µM
- GI50 (IGROV1 ovarian): > 100 µM
- TGI (IGROV1 ovarian): > 100 µM
- GI50 (XF 498 CNS): > 100 µM
- TGI (XF 498 CNS): > 100 µM
- GI50 (SK-MEL-2 melanoma): > 100 µM
- TGI (SK-MEL-2 melanoma): > 100 µM
- GI50 (EKVX NSCLC): > 100 µM
- TGI (EKVX NSCLC): > 100 µM
- TGI (HCC-2998 colon): > 100 µM
- GI50 (M19-MEL melanoma): > 100 µM
- TGI (M19-MEL melanoma): > 100 µM
- GI50 (KM20L2 colon): > 100 µM
- TGI (KM20L2 colon): > 100 µM
- TGI (CCRF-CEM leukemia): > 100 µM
- GI50 (SK-OV-3 ovarian): > 100 µM
- TGI (SK-OV-3 ovarian): > 100 µM
- GI50 (M14 melanoma): > 100 µM
- TGI (M14 melanoma): > 100 µM
- GI50 (786-0 renal): > 100 µM
- TGI (786-0 renal): > 100 µM
- GI50 (OVCAR-3 ovarian): > 100 µM
- TGI (OVCAR-3 ovarian): > 100 µM
- GI50 (KM12 colon): > 100 µM
- TGI (KM12 colon): > 100 µM
- GI50 (OVCAR-5 ovarian): > 100 µM
- TGI (OVCAR-5 ovarian): > 100 µM
- GI50 (UACC-62 melanoma): > 100 µM
- TGI (UACC-62 melanoma): > 100 µM
- GI50 (SF-295 CNS): > 100 µM
- TGI (SF-295 CNS): > 100 µM
- GI50 (UACC-257 melanoma): > 100 µM
- TGI (UACC-257 melanoma): > 100 µM
- GI50 (COLO 205 colon): > 100 µM
- TGI (COLO 205 colon): > 100 µM
- GI50 (SF-539 CNS): > 100 µM
- TGI (SF-539 CNS): > 100 µM
- TGI (SR leukemia): > 100 µM
- GI50 (NCI-H226 lung): > 100 µM
- TGI (NCI-H226 lung): > 100 µM
- GI50 (HOP-18 NSCLC): > 100 µM
- TGI (HOP-18 NSCLC): > 100 µM
- GI50 (K-562 leukemia): > 100 µM
- TGI (K-562 leukemia): > 100 µM
- GI50 (HT29 colon): > 100 µM
- TGI (HT29 colon): > 100 µM
- TGI (NCI-H522 lung): > 100 µM
- GI50 (RPMI-8226 leukemia): > 100 µM
- TGI (RPMI-8226 leukemia): > 100 µM
- GI50 (HCT-116 colon): > 100 µM
- TGI (HCT-116 colon): > 100 µM
- GI50 (OVCAR-4 ovarian): > 100 µM
- TGI (OVCAR-4 ovarian): > 100 µM
- GI50 (SK-MEL-5 melanoma): > 100 µM
- TGI (SK-MEL-5 melanoma): > 100 µM
- GI50 (HL-60(TB) leukemia): > 100 µM
- TGI (HL-60(TB) leukemia): > 100 µM
- TGI (LXFL 529 NSCLC): > 100 µM
- GI50 (A549 NSCLC): > 100 µM
- TGI (A549 NSCLC): > 100 µM
- GI50 (MALME-3M melanoma): > 100 µM
- TGI (MALME-3M melanoma): > 100 µM
- TGI (SK-MEL-28 melanoma): > 100 µM
